Measurements reported in the supplement of paper PMC6723410.

How the values were obtained:
GUMC-403 [1] = experiment: viability at highest tested concentration (max response) relative to DMSO (% of DMSO control); higher = less cytotoxic; details: library / dose series: MIPE library, 11-point 1:3 dilution; top concentration 46.1 µM; 48 h
Procedure, shortened: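 Plates of 1536 wells were seeded with 700 patient-derived GUMC-403 papilloma cells per well, grown by conditional reprogramming, in 5 μL F + Y medium and kept overnight at 37 °C. Compounds followed at 23 nL by pin tool over an 11-point 1:3 series, for 48 h. After a CellTiter-Glo luminescence read on a ViewLux, signals were set against vehicle wells as 100% and empty wells as 0%. The reported number is viability at the highest tested concentration relative to vehicle control.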

GUMC-403 [2] = experiment: AC50 for reduction of cell viability; higher = less potent; details: 48 h
[3] = library / dose series: MIPE library, 11-point 1:3 dilution
[4] = library / dose series: NPC library, 8-point 1:5 dilution

Row | SMILES | viability (GUMC-403 [1]) | AC50 for reduction of cell viability (GUMC-403 [2]; [3]) | AC50 for reduction of cell viability (GUMC-403 [2]; [4])
1 | COC1=CC(=CC(=C1)C2=CC=C3N=CC\4=C(N(C(=O)\C=C4)C5=CC(=C(C=C5)N6CCNCC6)C(F)(F)F)C3=C2)OC | 28.5 | 16.6 µM | –
2 | CC(=O)Nc1ccc([C@H](C)C(=O)Nc2ncc(C(C)C)s2)cc1 | 15.9 | 1.66 µM | –
3 | Cn1cc(CNCC2CCN(c3ncc(C(=O)NO)cn3)CC2)c2ccccc21 | 33.5 | 2.96 µM | –
4 | CS[C@H]1SC[C@@H]2C(=O)N(C)[C@H](C(C)C)C(=O)OC[C@H](NC(=O)c3cnc4ccccc4n3)C(=O)N[C@H](C)C(=O)N(C)[C@H]1C(=O)N(C)[C@H](C(C)C)C(=O)OC[C@H](NC(=O)c1cnc3ccccc3n1)C(=O)N[C@H](C)C(=O)N2C | 14.4 | 0.0209 µM | –
5 | CC(/C=C/C(=O)NO)=C\[C@@H](C)C(=O)c1ccc(N(C)C)cc1 | 26 | 20.9 µM | –
6 | C/C(=N\NC(=S)N1CCC1)c1ccccn1 | 44 | 4.18 µM | –
7 | CCOc1cc2ncc(C#N)c(Nc3ccc(F)c(Cl)c3)c2cc1NC(=O)/C=C/CN(C)C | 76.1 | 0.0296 µM | –
8 | C[C@@]12C(=O)OC(=O)[C@@]1(C)C1CCC2O1 | 21.1 | 5.9 µM | –
9 | Cc1ncc(-c2ccnc(Nc3ccc([S+](C)(=O)[O-])cc3)n2)n1C(C)C | 47.8 | 10.5 µM | –
10 | COC1=CC(c2cc3ccccc3[nH]2)=N/C1=C/c1[nH]c(C)cc1C | 26.6 | 10.5 µM | –
11 | Cc1nc(N)ncc1-c1nc(N2CCOCC2)c2sc(C(C)(C)O)cc2n1 | 45.7 | 0.332 µM | –
12 | CC[C@@H]1C(=O)N(C)c2cnc(Nc3ccc(C(=O)NC4CCC(N5CCN(CC6CC6)CC5)CC4)cc3OC)nc2N1C(C)C (stereo not given in full) | 6.26 | 20.9 µM | –
13 | C[C@@]12O[C@@H](C[C@]1(O)CO)n1c3ccccc3c3c4c(c5c6ccccc6n2c5c31)CNC4=O | 7.55 | 5.9 µM | –
14 | Nc1nc(N)c2nc(-c3cccc(O)c3)c(-c3cccc(O)c3)nc2n1 | 32.4 | 5.26 µM | –
15 | COc1ncc(-c2ccc3nccc(-c4ccnnc4)c3c2)cc1N[S+](=O)([O-])c1ccc(F)cc1F | 9.41 | 0.59 µM | –
16 | ClC1=CC\2=C(NC(=O)\C(=C2N[C@@H]3CN4CCC3CC4)C5=NC6=C([NH]5)C=CC=C6)C=C1 | 16.4 | 3.32 µM | –
17 | COc1ccc(Nc2cc(-c3cnc(N)nc3)nc(N3CCOCC3)n2)cn1 | 31.5 | 2.96 µM | –
18 | COC(=O)Nc1ccc(-c2nc(N3CCOCC3)c3cnn(C4CCN(C(=O)OC)CC4)c3n2)cc1 | 13.8 | 0.0264 µM | –
19 | C=CCNc1c(O)cc2c(O)c1C[C@@H](C)C[C@H](OC)[C@H](O)[C@@H](C)/C=C(/C)[C@H](OC(N)=O)[C@@H](OC)/C=C\C=C(\C)C(=O)N2 | 68.9 | 4.69 µM | –
20 | C=CC(=O)Nc1cccc(Oc2nc(Nc3ccc(N4CCN(C)CC4)cc3OC)ncc2Cl)c1 | 65.2 | 0.59 µM | –
21 | c1nc2c(NC3CCCCC3)nc(Nc3ccc(N4CCOCC4)cc3)nc2[nH]1 | 31.3 | 18.7 µM | –

Row | SMILES | viability (GUMC-403 [1]) | AC50 for reduction of cell viability (GUMC-403 [2]; [3]) | AC50 for reduction of cell viability (GUMC-403 [2]; [4])
22 | CC(C)C[C@H](NC(=O)[C@H](Cc1ccccc1)NC(=O)c1cnccn1)B(O)O | 3.84 | 0.264 µM | 0.15 µM
23 | CC[C@H](NC1=C2N=C[NH]C2=NC=N1)C/3=N/C4=C(C(=CC=C4)F)C(=O)N3C5=CC=CC=C5 | 75.5 | 3.72 µM | –
24 | CCC[C@@H](C=O)NC(=O)[C@H](CC(C)C)NC(=O)[C@H](CC(C)C)NC(=O)OCc1ccccc1 | 7.94 | 14.8 µM | –
25 | CSCC[C@H](NC(=O)[C@H](Cc1c[nH]c2ccccc12)NC(=O)CCNC(=O)OC(C)(C)C)C(=O)N[C@@H](CC(=O)O)C(=O)N[C@@H](Cc1ccccc1)C(N)=O | 30.1 | 5.9 µM | –
26 | O=C(Nc1ccc([N+](=O)[O-])cc1Cl)c1cc(Cl)ccc1O | 53.9 | 4.18 µM | –
27 | COC(=O)/C=C/C(=O)OC | 55.3 | 3.72 µM | –
28 | COc1ccc(F)c(F)c1C(=O)c1cnc(NC2CCN([S+](C)(=O)[O-])CC2)nc1N | 55.6 | 4.69 µM | –
29 | Cc1nc(NC(=O)N2CCC[C@H]2C(N)=O)sc1-c1csc(C(C)(C)C)n1 | 30.8 | 10.5 µM | –
30 | CC(C)n1nc(-c2cc3cc(O)ccc3[nH]2)c2c(N)ncnc21 | 69.2 | – | 1.19 µM
31 | COc1cc(C[C@@H](CO)[C@H](CO)Cc2ccc(O)c(OC)c2)ccc1O | 34.9 | 2.64 µM | –
32 | Cc1ccc([N+](=O)[O-])cc1[S+](=O)([O-])N(C)/N=C/c1cnc2ccc(Br)cn12 | 8.42 | 0.0235 µM | –
33 | CCNC(=O)c1noc(-c2cc(C(C)C)c(O)cc2O)c1-c1ccc(CN2CCOCC2)cc1 | 74.5 | 0.296 µM | –
34 | C[C@H]([C@H]1C\C(=C(CO)/C(=O)O1)C)[C@H]2CC[C@H]3[C@@H]4C[C@H]5O[C@]56[C@@H](O)\C=C/C(=O)[C@]6(C)[C@H]4CC[C@]23C | 5.02 | 14.8 µM | –
35 | CC(C)CC(=O)Nc1n[nH]c2c1CN(C(=O)C1CCN(C)CC1)C2(C)C | 15.9 | 1.48 µM | –
36 | CC(C)C[C@H](NC(=O)[C@@H](NC(=O)c1cccc(-c2ccccc2)n1)[C@@H](C)O)B(O)O | 26.3 | 1.87 µM | –
37 | C[S+](=O)([O-])N1CCN(Cc2cc3nc(-c4cccc5[nH]ncc45)nc(N4CCOCC4)c3s2)CC1 | 55.1 | 0.235 µM | –
38 | CCCCOc1c(C(=O)c2c(F)cc(C)cc2F)cnc2[nH]ncc12 | 75.8 | 8.33 µM | –
39 | CCC[C@H](NC(=O)/C(C#N)=C/c1cccc(Br)n1)c1ccccc1 | 19.1 | 16.6 µM | –
40 | Cc1ccc(C(N)=O)cc1Nc1nccc(-c2cn(C(C)C)c3cnccc23)n1 | 30 | 8.33 µM | –
41 | CC(C)C[C@H](NC(=O)[C@H](CCc1ccccc1)NC(=O)CN1CCOCC1)C(=O)N[C@@H](Cc1ccccc1)C(=O)N[C@@H](CC(C)C)C(=O)[C@@]1(C)CO1 | 6.18 | 1.05 µM | –
42 | Cc1cc(Nc2ncc3c(n2)N(C)C(=O)N(c2cc(NC(=O)c4cccc(C(F)(F)F)c4)ccc2C)C3)n(C)n1 | 53.5 | 0.743 µM | –
